From patent US20250144250A1, “PH-SENSITIVE FLUOROPHORES” (The General Hospital Corporation, priority 2022, published 2025)

How the values were obtained:
ID8 cells = assay: Subcellular localization (co-localization with MitoTracker, LysoTracker, NucBlue); type: cell-based, murine; conditions: 10 μM, 30 min incubation
Procedure: FIG. 3 Subcellular localization of pH sensing NIR fluorophores: (a) Subcellular localization of each probe (10 μM) in ID8 cells was determined after 30 min of incubation at 37° C. Nuclei, mitochondria, and lysosomes were stained with NucBlue, MitoTracker Green, or LysoTracker Red, respectively. Representative fluorescence images of cells. Scale bar=20 μm. (b) Co-localization index of each probe with MitoTracker Green or LysoTracker Red. The index was calculated by dividing the area of overlap between pH probe and MitoTracker or LysoTracker by the total area of MitoTracker or LysoTracker, respectively. The co-localization index was determined in 5-6 photographic areas (70×92 μm^2 each) for each probe. *P<0.05 by two-way ANOVA followed by Tukey's multiple comparisons test. Error bars show means±s.d.
Live-cell labeling and in vitro imaging: Murine ovarian cancer cells (ID8 cells) were obtained from Dr. Wang's lab in the Vincent Center for Reproductive Biology at Massachusetts General Hospital (MGH). Cells were cultured and maintained in Dulbecco's modified Eagle's medium (DMEM) supplemented with 4% FBS (Gibco, Grand Island, NY), 1% insulin-transferrin-selenium (Sigma-Aldrich), and 1% penicillin-streptomycin (Gibco). Cells were plated in a T-75 culture flask until 70% confluency before dividing for the next passage. For fluorophore binding affinity, ID8 cells were incubated at a density of 20,000 cells/well in a 24-well plate in a humidified incubator at 37° C. under 5% CO2 in the air. Cells were then incubated at 37° C. for 30 min in the presence of 0.2 μM of PH03 or PH08 and phenol red-free Hank's balanced salt solution (HBSS) with or without 10% FBS. […] Image acquisition and analysis were performed using IPLab software (Scanalytics, Fairfax, VA), and the fluorescent intensity of each cell was measured using ImageJ (National Institutes of Health, Bethesda, MD). The outline of each cell was determined on a phase-contrast image to specify the region of interest (ROI) and superimposed on a fluorescence image for measurements. All NIR fluorescence images for each fluorophore were normalized identically for all conditions during an experiment. […]
Subcellular distribution of pH sensing NIR fluorophores: To investigate the fate of the NIR fluorophores after uptake by cells, we performed in vitro live-cell imaging and evaluated subcellular localization of the NIR fluorophores in cultured ID8 ovarian cancer cells. PH03 and PH08 were incubated with ID8 cells for 30 min followed by double staining with commercially available MitoTracker or LysoTracker Green and imaged under the house-built NIR fluorescence microscope. […]

[1] = test system: peritoneal dissemination of ID8 ovarian cancer; assay: Preclinical intraoperative fluorescence-guided surgery; type: in vivo, mice; conditions: FGS 4 h post-injection, 20 nmol
Procedure: Preclinical intraoperative fluorescence-guided surgery: We performed preclinical fluorescence-guided surgery (FGS) in mice with peritoneal dissemination of ID8 ovarian cancer using the FLARE imaging system. We injected 20 nmol of PH08 in 100 μL of 5% wt/v BSA/saline into the mouse intraperitoneally 4 h prior to the surgery. The abdominal cavity was opened with a midline incision under isoflurane inhalational anesthesia. The entire abdominal cavity was examined carefully by a surgeon using color and fluorescent imaging on the FLARE imaging system. Peritoneal dissemination was resected under white light assisted with the color and fluorescent images.
Evaluation of in vivo efficacy of NIR fluorophores for fluorescence-guided surgery (FGS): Having confirmed the pH sensitivity and tumor cell uptake of PH08 in vitro, we next evaluated the in vivo performance of the pH sensing NIR fluorophores in a mouse model of ovarian cancer. […] In this model, approximately 12 week post-peritoneal injection of ID8 cells, numerous nodules were observed on the peritoneum. These small nodules (<1 mm) are extremely difficult to localize and visualize in the surgical field. Thus, this model was suitable to test the performance of this fluorophore. […] The signal of PH08 allowed for clear visualization of the lesions that measured 5 mm or less than 1 mm in diameter. […]

Structure (SMILES)	overlap of fluorescence signal with LysoTracker (lysosome) (ID8 cells) [%]	overlap of fluorescence signal with MitoTracker (mitochondria) (ID8 cells) [%]	outcome of FGS [1]
CCN1/C(=C/C=C2\CCCC(/C=C/C3=[N+](CC)c4ccccc4C3(C)C)=C2c2ccccc2)C(C)(C)c2ccccc21 [PH03, 1-Ethyl-2-((E)-2-((E)-6-(2-((E)-1-ethyl-3,3-dimethylindolin-2-ylidene)ethylidene)-3,4,5,6-tetrahydro-[1,1′-biphenyl]-2-yl)vinyl)-3,3-dimethyl-3H-indol-1-ium iodide]	34.93	91.47	–
CCN1/C(=C/C=C2\CCCC(/C=C/C3=[N+](CC)c4ccccc4C3(C)C)=C2N2CCNCC2)C(C)(C)c2ccccc21 [PH08]	71.83	83.05	complete resection of metastatic nodules
